Assay results reported in paper PMC3610872, “Full and Partial Agonists of Thromboxane Prostanoid Receptor Unveil Fine Tuning of Receptor Superactive Conformation and G Protein Activation” (PLoS ONE, 2013).
Where a chain is given by its changes, count along the chain named.

Assays:
[1] = target: T1, E129V mutant human TP receptor (Homo sapiens, UniProt P21731, E129V); assay: Total inositol phosphate (IP) accumulation, E129V mutant; assay type: cell-based; conditions: HEK293 cells; for EC50 / Emax, total IP / Pharmacodynamic behaviour in total IP assay: E129V; for Pharmacodynamic behaviour in total IP assay: SQ29,548 in absence or presence of Gαq overexpression; for Activity ratio (EC50 WT over EC50 E129V), total IP: WT vs E129V
T1 construct: expressed in transfected cells; host or cells: HEK293
T1 sequence (P21731 1-343 E129V): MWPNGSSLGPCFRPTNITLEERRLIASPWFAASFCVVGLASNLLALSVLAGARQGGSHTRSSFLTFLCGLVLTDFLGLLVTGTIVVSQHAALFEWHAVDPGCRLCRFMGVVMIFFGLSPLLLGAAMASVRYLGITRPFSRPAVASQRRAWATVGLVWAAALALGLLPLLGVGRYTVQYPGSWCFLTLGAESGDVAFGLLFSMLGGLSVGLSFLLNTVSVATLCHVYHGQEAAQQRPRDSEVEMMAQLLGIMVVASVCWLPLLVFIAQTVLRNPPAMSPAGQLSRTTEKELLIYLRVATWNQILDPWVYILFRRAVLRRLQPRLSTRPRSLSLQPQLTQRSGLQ
Procedure: (§1) Receptor expression and functional activity were monitored 48 hours after transfection. […] Heterologous competition studies involved concentrations of the indicated unlabeled ligands extending from 0.1 nM to 30 µM. After 30 min incubation at 25 °C, the reaction was stopped by aspiration of the medium, cells were washed with ice-cold PBS containing 0.2% (w/v) BSA and lysed in 0.5 N NaOH. Radioactivity was measured by liquid scintillation counting. Binding data were analyzed as described in Data and Statistical Analysis. Quantification of the total labeled inositol phosphates (IP) accumulation was performed using a conventional gravity flow column chromatography, as described previously, [19]. Briefly, the day before the assay, cells were labeled with 0,5 µCi of [myo-2-^3H]inositol (17 Ci/mmol) for 18–20 hours in serum-free, inositol-free DMEM containing 20 mM HEPES buffer, pH 7.4, and 0.5% (w/v) Albumax I. The day of the assay, media was replaced with serum-free, inositol-free DMEM containing 25 mM LiCl and cells stimulated for 30 min with the indicated agonists. After removal of the medium, cells were lysed with 10 mM formic acid and lysates were applied onto an anion exchange AG 1X-8 column, formate form, 200–400 mesh. The total IP fraction was then eluted with 2 M ammonium formate/formic acid buffer at pH 5 and radioactivity determined by liquid scintillation counting. Rescue experiments were performed essentially as above, except for a 18 hours incubation step with 1 µΜof […] followed by its removal by washing three times with ice-cold PBS containing 1 mM MgCl2 and 0.1 mM CaCl2 before starting the experiment.
(§2) All average results are presented as mean±S.E. When indicated, ANOVA followed by post-hoc test for multiple comparisons was performed. Data from radioligand binding were evaluated by a nonlinear, least-squares curve-fitting procedure using GraphPad Prism version 4, implemented with the n-ligand m-binding site model, as described in the LIGAND computer program. Concentration-response curves were evaluated using Prism 4, which use the four parameters logistic model as described in the ALLFIT program. Parameter errors are all expressed in percentage coefficient of variation (%CV) and calculated by simultaneous analysis of at least two different independent experiments performed in duplicate or triplicate. Parameter comparison has been performed on the base of the F test for extra sum of square principle. All curves shown are computer generated.

[2] = target: T1, E129V mutant human TP receptor; assay: BRET2 measurement of Gq protein activation, E129V mutant; assay type: cell-based; conditions: HEK293 cells; for EC50: E129V, Gαq-Rluc8/GFP10-Gγ2/Gβ1, 2 min ligand, value ±%CV; for Activity ratio (EC50 WT over EC50 E129V), BRET: WT vs E129V
Procedure: as §2

[3] = target: T2, WT human TP receptor (Homo sapiens, UniProt P21731); assay: [3H]SQ29,548 radioligand binding (mixed-type and heterologous competition), WT receptor; conditions: HEK293 cells, competition vs 1 nM [3H]SQ29,548, 25°C 30 min, value ±%CV
T2 construct: expressed in transfected cells; host or cells: HEK293
T2 sequence (P21731 1-343): T1 sequence (P21731 1-343 E129V) with V129E
Procedure: as §1, §2
(§3) Thus, transfection conditions were adjusted to secure equivalent levels of receptor expression for WT and mutants as previously described, [17], [19]. […] All the experiments were conducted within this range of receptor expression, if not specified differently.

[4] = target: T2, WT human TP receptor; assay: BRET2 measurement of Gq protein activation, WT receptor; assay type: cell-based; conditions: HEK293 cells, value ±%CV; for EC50: Gαq-Rluc8/GFP10-Gγ2/Gβ1, 2 min ligand
From the text: HEK 293 cells were co-transfected with vectors expressing the GFP^10-Gγ2, Gβ1, Gαq-Rluc8 and WT or E129V mutant of TP receptor to investigate direct G protein activation with an intramolecular bioluminescent resonance energy transfer (BRET^2) strategy. To avoid possible variations in the BRET signaling resulting from fluctuation in the relative expression levels of the energy donor and acceptor, we designed transfection conditions to maintain constant GFP^10 and Rluc8 expression and their ratios in each experimental set. Total fluorescence and luminescence were directly determined in an aliquot of the transfected cells using an Infinite F500 microplate reader (Tecan, Milan, Italy) as previously described. […] 48 hours after transfection, cells were washed once with PBS, detached, and resuspended in PBS+0.1% (w/v) glucose at room temperature. Cells were then distributed (80 µg of proteins per well) into a 96-well microplate (Wallac, Perkin Elmer, Monza, Italy) and incubated in the presence or absence of increasing concentrations of ligands for 2 min before the addition of the luciferase substrate Coelenterazine 400a (5 µM; Biotium, Hayward, CA). BRET signal between Rluc8 and GFP^10 was measured immediately after the addition of the Rluc substrate in the microplate reader. The BRET signal was calculated as the ratio of the light emitted by GFP^10 (510–540 nm) over the light emitted by Rluc8 (370–450 nm). The changes in BRET induced by the ligands were expressed as Òagonist-induced BRETÓ, obtained by subtracting the BRET signal detected in the presence of PBS by the BRET signal detected in the presence of the specific ligand.
as §2
This recorded real time conformational changes between the α and the βγ subunits within the Gq protein, where a decrease of the BRET signal provoked by agonist-induced receptor activation is indicative of a conformational reorganization leading the Gα-Gβγ interface to open, reflects the initial event of Gq protein activation, [23] (Figure 6A).

[5] = target: T2, WT human TP receptor; assay: Total inositol phosphate (IP) accumulation, WT receptor; assay type: cell-based; conditions: HEK293 cells; for Pharmacodynamic behaviour in total IP assay: SQ29,548 in absence or presence of Gαq overexpression
Procedure: as §1, §2

[6] = target: T1, E129V mutant human TP receptor; assay: [3H]SQ29,548 radioligand binding (mixed-type and heterologous competition), E129V mutant; conditions: HEK293 cells; for Ki: E129V, competition vs 1 nM [3H]SQ29,548, 25°C 30 min, value ±%CV; for Affinity ratio (Ki WT over Ki E129V): WT vs E129V
Procedure: as §1, §2, §3

[7] = target: T3, double mutant E129V/E240V of human TP receptor (Homo sapiens, UniProt P21731, E129V/E240V); assay: Total inositol phosphate (IP) accumulation, E129V/E240V double mutant, rescue with SQ29,548; assay type: cell-based; conditions: cells exposed to 1 µM for 18 hours, removed by washing, then 1 µM U46619 for 30 min
T3 construct: expressed in transfected cells; host or cells: HEK293
T3 sequence (P21731 1-343 E129V/E240V): T1 sequence (P21731 1-343 E129V) with E240V
Procedure: Receptor expression and functional activity were monitored 48 hours after transfection. […] Heterologous competition studies involved concentrations of the indicated unlabeled ligands extending from 0.1 nM to 30 µM. After 30 min incubation at 25 °C, the reaction was stopped by aspiration of the medium, cells were washed with ice-cold PBS containing 0.2% (w/v) BSA and lysed in 0.5 N NaOH. Radioactivity was measured by liquid scintillation counting. Binding data were analyzed as described in Data and Statistical Analysis. Quantification of the total labeled inositol phosphates (IP) accumulation was performed using a conventional gravity flow column chromatography, as described previously, [19]. […] The total IP fraction was then eluted with 2 M ammonium formate/formic acid buffer at pH 5 and radioactivity determined by liquid scintillation counting. […]
All average results are presented as mean±S.E. When indicated, ANOVA followed by post-hoc test for multiple comparisons was performed. Data from radioligand binding were evaluated by a nonlinear, least-squares curve-fitting procedure using GraphPad Prism version 4, implemented with the n-ligand m-binding site model, as described in the LIGAND computer program. Concentration-response curves were evaluated using Prism 4, which use the four parameters logistic model as described in the ALLFIT program. […]

[8] = 30 min stimulation, no Gαq overexpression, value ±%CV
[9] = Gαq overexpression (5x), 30 min

| Pharmacodynamic behaviour in total IP assay [1] | Pharmacodynamic behaviour in total IP assay [5] | EC50 [1, 9] [nM] | Emax, total IP [1, 9] [dpm/well] | Emax, total IP ([1]; no Gαq overexpression, 30 min) [dpm/well] | EC50 [5, 9] [nM] | Emax, total IP [5, 9] [dpm/well] | SMILES | EC50 ([1]; 30 min stimulation, value ±%CV) [nM] | Emax, total IP ([1]; 30 min stimulation, value ±%CV) [dpm/wel] | EC50 [2] [nM] | Ki [3] [nM] | EC50 [4] [nM] | Emax, agonist-induced BRET [4] | Emax, total IP [5, 8] [dpm/well] | EC50 ([5]; 30 min stimulation, value ±%CV) [nM] | Ki [6] [nM] | Functional rescue of double mutant receptor activity [7] | Activity ratio (EC50 WT over EC50 E129V), total IP [1] | Activity ratio (EC50 WT over EC50 E129V), BRET [2] | Affinity ratio (Ki WT over Ki E129V) [6] |
| --- | --- | --- | --- | --- | --- | --- | --- | --- | --- | --- | --- | --- | --- | --- | --- | --- | --- | --- | --- | --- |
| pure antagonist | pure antagonist | – | – | – | – | – | O=C(O)CCC/C=C\C[C@@H]1[C@H](CNNC(=O)Nc2ccccc2)[C@H]2CC[C@@H]1O2 [SQ29,548, [1S-[1α,2α(Z),3α,4α]]-7-[3-[[2-[(phenylamino)carbonyl]-hydrazino]methyl]-7-oxabicyclo[2.2.1]hept-2-yl]-5-heptenoic acid] | – | – | – | – | – | – | – | – | – | able to rescue double mutant receptor functional activity, albeit not completely | – | – | – |
| much stronger agonist | very weak partial agonist | 747 | 26642 | 19423 | 1450 | 19670 | CCCCC[C@H](O)/C=C/C1CC2CC(C1C/C=C\CCCC(=O)O)C2(C)C (stereo partly drawn) [PTA2, 9α,11α-(dimethyl)methylene-15S-hydroxy-11α-deoxy-11α-methylene-thromba-5Z,13E-dien-1-oic acid] | – | – | – | 12100 | – | – | 5856 | – | 4840 | – | – | – | – |

More lines, now with the values behind:

| SMILES | Pharmacodynamic behaviour in total IP assay [1] | Pharmacodynamic behaviour in total IP assay [5] | EC50 [1, 9] [nM] | Emax, total IP [1, 9] [dpm/well] | Emax, total IP ([1]; no Gαq overexpression, 30 min) [dpm/well] | EC50 [5, 9] [nM] | Emax, total IP [5, 9] [dpm/well] | EC50 ([1]; 30 min stimulation, value ±%CV) [nM] | Emax, total IP ([1]; 30 min stimulation, value ±%CV) [dpm/wel] | EC50 [2] [nM] | Ki [3] [nM] | EC50 [4] [nM] | Emax, agonist-induced BRET [4] | Emax, total IP [5, 8] [dpm/well] | EC50 ([5]; 30 min stimulation, value ±%CV) [nM] | Ki [6] [nM] | Functional rescue of double mutant receptor activity [7] | Activity ratio (EC50 WT over EC50 E129V), total IP [1] | Activity ratio (EC50 WT over EC50 E129V), BRET [2] | Affinity ratio (Ki WT over Ki E129V) [6] |
| --- | --- | --- | --- | --- | --- | --- | --- | --- | --- | --- | --- | --- | --- | --- | --- | --- | --- | --- | --- | --- |
| O=C(O)CCCC=CCC1C2CCC(O2)C1C=CC(O)COc1ccc(I)cc1 (stereo not drawn) [I-BOP, [1S-[1α,2α(Z),3β(1E,3S*),4α]]-7-[3-[3-hydroxy-4-(4-iodophenoxy)-1-butenyl]-7-oxabicyclo[2.2.1]hept-2-yl]-5-heptenoic acid] | – | – | – | – | – | – | – | 2.99 | 17156±8 | 3.96 | 24.3 ± 18 | 13 ± 27 | −0.07±5 | 13099±14 | 25.1 ± 65 | 3.9 | – | – | – | – |
| CCCCC[C@H](O)/C=C/[C@@H]1[C@H](C/C=C\CCCC(=O)O)[C@@H](O)C[C@H]1O [8-isoPGF2α, 8-iso Prostaglandin F2α] | – | – | – | – | – | – | – | 493 ± 53 | 15287±7 | 404 ± 31 | 12930 ± 19 | 3940 ± 48 | −0.05±9 | 6744±42 | 4000 ± 68 | 2908 ± 11 | – | 8.1 | 9.7 | 4.4 |
| CCCCC[C@H](O)/C=C/[C@H]1[C@H](O)CC(=O)[C@H]1C/C=C\CCCC(=O)O [8-isoPGE2, 8-iso Prostaglandin E2] | – | – | – | – | – | – | – | 95.9 ± 60 | 12201±5 | 485 ± 46 | 2916 ± 15 | 1980 ± 72 | −0.02±42 | 5087±21 | 1160 ± 72 | 547.6 ± 2 | – | 12.0 | 4.1 | 5.3 |
